The record followed here is patent US10040798B2, “Pyrrolopyridazine inhibitors of IRAK4 activity” (MERCK SHARP & DOHME CORP., priority 2015, dated 2018).

Structures can show the parent of a compound that is named as a salt.

Chain of IRAK4 (Q9NWZ3 whole entry): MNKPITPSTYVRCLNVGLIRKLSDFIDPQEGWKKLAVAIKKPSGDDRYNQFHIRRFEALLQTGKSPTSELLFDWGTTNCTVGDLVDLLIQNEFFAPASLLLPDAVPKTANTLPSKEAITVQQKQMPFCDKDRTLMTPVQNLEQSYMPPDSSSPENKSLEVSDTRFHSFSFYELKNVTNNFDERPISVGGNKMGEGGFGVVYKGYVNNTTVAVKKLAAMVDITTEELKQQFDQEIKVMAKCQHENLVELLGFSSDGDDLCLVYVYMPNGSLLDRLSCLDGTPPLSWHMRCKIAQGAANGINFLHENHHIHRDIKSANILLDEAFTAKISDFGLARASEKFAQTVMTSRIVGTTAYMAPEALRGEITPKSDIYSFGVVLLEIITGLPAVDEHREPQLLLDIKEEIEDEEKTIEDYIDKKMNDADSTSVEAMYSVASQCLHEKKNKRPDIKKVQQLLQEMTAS

In this test the target is IRAK4 (Homo sapiens (Human), UniProt Q9NWZ3). Briefly: IRAK4 Kinase Assay (IMAP fluorescence polarization). Format: biochemical. As to conditions: 0.5 nM GST tagged IRAK4, 100 μM ATP, 30 minutes at 25° C., IMAP FP. Put shortly:
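GST-tagged IRAK4 (0.5 nM) phosphorylated 100 nM fluorescent peptide RP7030 with 100 μM ATP in 10 mM Tris-HCl pH 7.2, MgCl2, DTT and Tween 20 for 30 min at 25 °C. Phosphorylation was read as the increase in fluorescence polarization after binding to IMAP nanoparticles.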
For orientation: Fluorescence polarisation rises when a labelled molecule tumbles more slowly, as on binding a larger partner.
On to `N[C@H]1CCCC[C@H]1Nc1ccc2ccc(C(=O)Nc3ccccc3Br)n2n1` [Example 58, 2-{[(1R,2S)-2-aminocyclohexyl]amino}-N-(2-bromo-phenyl)pyrrolo[1,2-b]pyridazine-7-carboxamide trifluoroacetate], for which half-maximal inhibition (IC50) was put at 0.011 µM.

`O=C(Nc1ccccc1Cl)c1ccc2ccc(N3CCCNCC3)nn12` [Example 59, N-(2-chlorophenyl)-2-(1,4-diazepan-1-yl)pyrrolo[1,2-b]pyridazine-7-carboxamide trifluoroacetate] gave an IC50 of 1.2 µM. Next, `O=C(Nc1cscc1Br)c1ccc2ccc(N3CCCNCC3)nn12` [Example 60, N-(4-bromothiophen-3-yl)-2-(1,4-diazepan-1-yl)pyrrolo[1,2-b]pyridazine-7-carboxamide trifluoroacetate]: 0.548 µM.

As for `O=C(Nc1ccccc1Br)c1ccc2ccc(N3CC4CCC3CN4)nn12` (centres unmarked) [Example 61, N-(2-bromophenyl)-2-(2,5-diazabicyclo[2.2.2]oct-2-yl)pyrrolo[1,2-b]pyridazine-7-carboxamide trifluoroacetate], half-maximal inhibition (IC50) required 1.67 µM. The value for `O=C(Nc1cscc1Br)c1ccc2ccc(N3CC4CCC3CN4)nn12` (centres unmarked) [Example 62, N-(4-bromothiophen-3-yl)-2-(2,5-diazabicyclo[2.2.2]oct-2-yl)pyrrolo[1,2-b]pyridazine-7-carboxamide trifluoroacetate] was 0.415 µM.

Compound `N[C@H]1CCCC[C@H]1Nc1ccc2ccc(C(=O)Nc3cscc3Br)n2n1` [Example 63, 2-{[(1R,2S)-2-aminocyclohexyl]amino}-N-(4-bromothiophen-3-yl)pyrrolo[1,2-b]pyridazine-7-carboxamide trifluoroacetate] returned an IC50 of 0.007 µM. Next, `O=C(Nc1ccccc1Cl)c1ccc2ccc(N3CC4CCC3CN4)nn12` (centres unmarked) [Example 64, N-(2-chlorophenyl)-2-(2,5-diazabicyclo[2.2.2]oct-2-yl)pyrrolo[1,2-b]pyridazine-7-carboxamide trifluoroacetate]: 0.611 µM. Next, `N[C@H]1CCCC[C@H]1Nc1ccc2ccc(C(=O)Nc3ccccc3Cl)n2n1` [Example 65, 2-{[(1R,2S)-2-aminocyclohexyl]amino}-N-(2-chlorophenyl)pyrrolo[1,2-b]pyridazine-7-carboxamide trifluoroacetate]: 0.006 µM; `O=C(Nc1ccsc1Cl)c1ccc2ccc(N3CCCNCC3)nn12` [Example 66, N-(2-chlorothiophen-3-yl)-2-(1,4-diazepan-1-yl)pyrrolo[1,2-b]pyridazine-7-carboxamide trifluoroacetate]: 0.636 µM.

As to `N#Cc1sccc1NC(=O)c1ccc2ccc(N3CCCNCC3)nn12` [Example 67, N-(2-cyanothiophen-3-yl)-2-(1,4-diazepan-1-yl)pyrrolo[1,2-b]pyridazine-7-carboxamide trifluoroacetate], the IC50 is 0.197 µM. Next, `N#Cc1cscc1NC(=O)c1ccc2ccc(N3CCCNCC3)nn12` [Example 68, N-(4-cyanothiophen-3-yl)-2-(1,4-diazepan-1-yl)pyrrolo[1,2-b]pyridazine-7-carboxamide trifluoroacetate]: 0.19 µM.

In turn, `O=C(Nc1cscc1C(F)F)c1ccc2ccc(N3CCCNCC3)nn12` [Example 69, 2-(1,4-diazepan-1-yl)-N-[4-(difluoromethyl)thiophen-3-yl]pyrrolo[1,2-b]pyridazine-7-carboxamide trifluoroacetate] came in with an IC50 of 0.151 µM.

Regarding `O=C(Nc1ccsc1Cl)c1ccc2ccc(N3CC4CCC3CN4)nn12` (centres unmarked) [Example 70, N-(2-chlorothiophen-3-yl)-2-(2,5-diazabicyclo[2.2.2]oct-2-yl)pyrrolo[1,2-b]pyridazine-7-carboxamide trifluoroacetate], the IC50 came out at 0.433 µM.

For the compound `N[C@H]1CCCC[C@H]1Nc1ccc2ccc(C(=O)Nc3ccsc3Cl)n2n1` [Example 71, 2-{[(1R,2S)-2-aminocyclohexyl]amino}-N-(2-chlorothiophen-3-yl)pyrrolo[1,2-b]pyridazine-7-carboxamide trifluoroacetate], the midpoint of inhibition, the IC50, lay at 0.004 µM.

In turn, `N[C@H]1CCCC[C@H]1Nc1ccc2ccc(C(=O)Nc3cscc3C(F)F)n2n1` [Example 72, 2-{[(1R,2S)-2-aminocyclohexyl]amino}-N-[4-(difluoromethyl)thiophen-3-yl]pyrrolo[1,2-b]pyridazine-7-carboxamide trifluoroacetate] had an IC50 of 0.024 µM. In turn, `N#Cc1cscc1NC(=O)c1ccc2ccc(N[C@@H]3CCCC[C@@H]3N)nn12` [Example 73, 2-{[(1R,2S)-2-aminocyclohexyl]amino}-N-(4-cyanothiophen-3-yl)pyrrolo[1,2-b]pyridazine-7-carboxamide trifluoroacetate] registered an IC50 of 0.003 µM. The compound `N#Cc1cscc1NC(=O)c1ccc2ccc(N3CC4CCC3CN4)nn12` (centres unmarked) [Example 74, N-(4-cyanothiophen-3-yl)-2-(2,5-diazabicyclo[2.2.2]oct-2-yl)pyrrolo[1,2-b]pyridazine-7-carboxamide trifluoroacetate] registered an IC50 of 0.134 µM. The compound `N#Cc1sccc1NC(=O)c1ccc2ccc(N[C@@H]3CCCC[C@@H]3N)nn12` [Example 75, 2-{[(1R,2S)-2-aminocyclohexyl]amino}-N-(2-cyanothiophen-3-yl)pyrrolo[1,2-b]pyridazine-7-carboxamide trifluoroacetate] showed an IC50 of 0.002 µM. Take `O=C(Nc1ccsc1Br)c1ccc2ccc(N3CCCNCC3)nn12` [Example 76, N-(2-bromothiophen-3-yl)-2-(1,4-diazepan-1-yl)pyrrolo[1,2-b]pyridazine-7-carboxamide trifluoroacetate]: 1.32 µM corresponded to half-maximal inhibition (IC50).

`N[C@H]1CCCC[C@H]1Nc1ccc2ccc(C(=O)Nc3ccsc3Br)n2n1` [Example 77, 2-{[(1R,2S)-2-aminocyclohexyl]amino}-N-(2-bromothiophen-3-yl)pyrrolo[1,2-b]pyridazine-7-carboxamide trifluoroacetate]: 0.011 µM corresponded to half-maximal inhibition (IC50). Compared with the last compound, the IC50 is about 120-fold lower.

As to `O=C(Nc1cscc1Cl)c1ccc2ccc(N3CCCNCC3)nn12` [Example 82, N-(4-chlorothiophen-3-yl)-2-(1,4-diazepan-1-yl)pyrrolo[1,2-b]pyridazine-7-carboxamide trifluoroacetate], half-maximal inhibition (IC50) required 0.308 µM.

The compound `N[C@H]1CCCC[C@H]1Nc1ccc2ccc(C(=O)Nc3cscc3Cl)n2n1` [Example 85, 2-{[(1R,2S)-2-aminocyclohexyl]amino}-N-(4-chlorothiophen-3-yl)pyrrolo[1,2-b]pyridazine-7-carboxamide trifluoroacetate] displayed an IC50 of 0.002 µM.

Consider `N[C@@H]1[C@H](Nc2ccc3ccc(C(=O)Nc4ccsc4Br)n3n2)CCCC1(F)F` [Example 86, 2-{[(1R,2R)-2-amino-3,3-difluoro-cyclohexyl]amino}-N-(2-bromothiophen-3-yl)pyrrolo[1,2-b]pyridazine-7-carboxamide trifluoroacetate], for which 5.24 µM corresponded to half-maximal inhibition (IC50). For the compound `N[C@@H]1[C@H](Nc2ccc3ccc(C(=O)Nc4cscc4Cl)n3n2)CCCC1(F)F` [Example 87, 2-{[(1R,2R)-2-amino-3,3-difluoro-cyclohexyl]amino}-N-(4-chlorothiophen-3-yl)pyrrolo[1,2-b]pyridazine-7-carboxamide acetate], the IC50 worked out at 2.17 µM. This IC50 is about 2.4-fold lower than that of the compound before.

`N[C@@H]1[C@H](Nc2ccc3ccc(C(=O)Nc4cscc4Br)n3n2)CCCC1(F)F` [Example 88, 2-{[(1R,2R)-2-amino-3,3-difluoro-cyclohexyl]amino}-N-(4-bromothiophen-3-yl)pyrrolo[1,2-b]pyridazine-7-carboxamide trifluoroacetate] returned an IC50 of 6.16 µM. For `N#Cc1cscc1NC(=O)c1ccc2ccc(N[C@@H]3CCCC(F)(F)[C@@H]3N)nn12` [Example 89, 2-{[(1R,2R)-2-amino-3,3-difluoro-cyclohexyl]amino}-N-(4-cyanothiophen-3-yl)pyrrolo[1,2-b]pyridazine-7-carboxamide trifluoroacetate], half-maximal inhibition (IC50) was put at 0.342 µM. Next, `N[C@@H]1[C@H](Nc2ccc3ccc(C(=O)Nc4ccsc4Cl)n3n2)CCCC1(F)F` [Example 90, 2-{[(1R,2R)-2-amino-3,3-difluoro-cyclohexyl]amino}-N-(2-chlorothiophen-3-yl)pyrrolo[1,2-b]pyridazine-7-carboxamide trifluoroacetate]: 1.92 µM; `O=C(Nc1ccsc1Cl)c1ccc2ccc(N[C@@H]3CCCC[C@@H]3O)nn12` [Example 91, N-(2-chlorothiophen-3-yl)-2-{[(1R,2S)-2-hydroxycyclohexyl]amino}pyrrolo[1,2-b]pyridazine-7-carboxamide]: 6.37 µM; `N[C@@H]1[C@H](Nc2ccc3ccc(C(=O)Nc4ccccc4Cl)n3n2)CCCC1(F)F` [Example 92, 2-{[(1R,2R)-2-amino-3,3-difluoro-cyclohexyl]amino}-N-(2-chlorophenyl)pyrrolo[1,2-b]pyridazine-7-carboxamide trifluoroacetate]: 2.06 µM. The value for `O=C(Nc1ccccc1Cl)c1ccc2ccc(N[C@@H]3CCCC[C@@H]3O)nn12` [Example 93, N-(2-chlorophenyl)-2-{[(1R,2S)-2-hydroxycyclohexyl]amino}pyrrolo[1,2-b]pyridazine-7-carboxamide trifluoroacetate] was 6.84 µM; that for `N[C@@H]1[C@H](Nc2ccc3ccc(C(=O)Nc4ccccc4Br)n3n2)CCCC1(F)F` [Example 94, 2-{[(1R,2R)-2-amino-3,3-difluoro-cyclohexyl]amino}-N-(2-bromophenyl)pyrrolo[1,2-b]pyridazine-7-carboxamide trifluoroacetate] was 5.63 µM; that for `O=C(Nc1ccccc1Br)c1ccc2ccc(N[C@@H]3CCCC[C@@H]3O)nn12` [Example 95, N-(2-bromophenyl)-2-{[(1R,2S)-2-hydroxycyclohexyl]amino}pyrrolo[1,2-b]pyridazine-7-carboxamide trifluoroacetate] was 5.86 µM.

The term IC50 denotes the concentration needed to halve the response being measured. Read a high IC50 as weaker potency.
